The values that follow come from PubChem BioAssay AID200 (DTP/NCI, 2004).

The test system of this experiment is B6C3F1 mice, B16 melanoma ip, median survival T/C. Put plainly: NCI In Vivo Anticancer Drug Screen. Data for tumor model B16 Melanoma (intraperitoneal) in B6C3F1 mice. The conditions noted are these: endpoint: median survival time, higher = longer survival. The procedure, abridged:
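Values are T/C ratios: the measurement in treated animals divided by that in vehicle-treated controls, using survival or tumor size in mice carrying transplantable tumors.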

Setting [1] is: dose: 50.0 mg/kg/injection, schedule: Q01DX009 (ip), vehicle: saline with Tween-80.
Setting [2] is: dose: 100.0 mg/kg/injection, schedule: Q01DX009 (ip), vehicle: saline with Tween-80.
Setting [3] is: dose: 25.0 mg/kg/injection, schedule: Q01DX009 (ip), vehicle: Klucel (hydroxypropylcellulose) (HPC).
Where [4] appears, read: dose: 100.0 mg/kg/injection, schedule: Q01DX009 (ip), vehicle: Klucel (hydroxypropylcellulose) (HPC).
The mark [5] stands for this setting: dose: 200.0 mg/kg/injection, schedule: Q01DX009 (ip), vehicle: Klucel (hydroxypropylcellulose) (HPC).
Setting [6] is: dose: 400.0 mg/kg/injection, schedule: Q01DX009 (ip), vehicle: Klucel (hydroxypropylcellulose) (HPC).
The mark [7] stands for this setting: dose: 6.25 mg/kg/injection, schedule: Q01DX009 (ip), vehicle: saline.
[8] abbreviates: dose: 12.5 mg/kg/injection, schedule: Q01DX009 (ip), vehicle: saline.
[9] abbreviates: dose: 25.0 mg/kg/injection, schedule: Q01DX009 (ip), vehicle: saline.
Setting [10] is: dose: 50.0 mg/kg/injection, schedule: Q01DX009 (ip), vehicle: saline.
Setting [11] is: dose: 100.0 mg/kg/injection, schedule: Q01DX009 (ip), vehicle: saline.
[12] abbreviates: dose: 6.25 mg/kg/injection, schedule: Q01DX009 (ip), vehicle: saline with Tween-80.
Setting [13] is: dose: 12.5 mg/kg/injection, schedule: Q01DX009 (ip), vehicle: saline with Tween-80.
Setting [14] is: dose: 25.0 mg/kg/injection, schedule: Q01DX009 (ip), vehicle: saline with Tween-80.

Molecules are shown by their SMILES. Values joined by “and” are separate entries in the source; they are usually repeats but may differ in a detail not shown here. Equal entries are not always repeated. Inconclusive results and toxic doses are left out. Where a SMILES comes first, the peptide text is derived from it. The star is where a group is joined. Cbz = O=C(OCc1ccccc1)*

`c1ccc(-c2nn(-c3ccccc3)[n+](-c3ccccc3-c3ccccc3)n2)cc1`: the T/C is 108 % of control (dose: 5.0 mg/kg/injection, schedule: Q01DX009 (ip), vehicle: saline); 99 % of control (dose: 10.0 mg/kg/injection, schedule: Q01DX009 (ip), vehicle: saline); 101 % of control (dose: 20.0 mg/kg/injection, schedule: Q01DX009 (ip), vehicle: saline).
As for `Cc1cc2nc3c(=O)[nH]c(=O)nc-3n(CC(O)C(O)C(O)C(O)CO)c2cc1C` (centres undefined), the T/C by setting is: (dose: 25.0 mg/kg/injection, schedule: Q01DX009 (ip), vehicle: suspension in saline) 104 % of control; (dose: 50.0 mg/kg/injection, schedule: Q01DX009 (ip), vehicle: suspension in saline) 111 % of control; (dose: 100.0 mg/kg/injection, schedule: Q01DX009 (ip), vehicle: suspension in saline) 102 % of control; (dose: 200.0 mg/kg/injection, schedule: Q01DX009 (ip), vehicle: suspension in saline) 93 % of control.
Regarding `CC1C(c2ccccc2)OC(N2CCOCC2)C(C)(C)CN1C` (centres undefined), the T/C runs as follows: under setting [1], 103 % of control; under setting [2], 99 % of control; (dose: 200.0 mg/kg/injection, schedule: Q01DX009 (ip), vehicle: saline with Tween-80) 96 % of control; (dose: 400.0 mg/kg/injection, schedule: Q01DX009 (ip), vehicle: saline with Tween-80) 100 % of control.
As to `COCC1OC2OC3C(COC)OC(OC4C(COC)OC(OC5C(COC)OC(OC6C(COC)OC(OC7C(COC)OC(OC8C(COC)OC(OC1C(O)C2O)C(O)C8O)C(O)C7O)C(O)C6O)C(O)C5O)C(O)C4O)C(O)C3O` (centres undefined) (tested in a mixture with another compound), the T/C is 87 % of control under setting [3]; 93 % of control (dose: 25.0 mg/kg/injection, schedule: Q04HX027 (ip), vehicle: Klucel (hydroxypropylcellulose) (HPC)); 90 % of control (dose: 50.0 mg/kg/injection, schedule: Q01DX009 (ip), vehicle: Klucel (hydroxypropylcellulose) (HPC)); 93 % of control (dose: 50.0 mg/kg/injection, schedule: Q01DX009 (oral), vehicle: Klucel (hydroxypropylcellulose) (HPC)); 86 % of control (dose: 50.0 mg/kg/injection, schedule: Q04HX027 (ip), vehicle: Klucel (hydroxypropylcellulose) (HPC)); 97 % of control (dose: 50.0 mg/kg/injection, schedule: Q04HX027 (oral), vehicle: Klucel (hydroxypropylcellulose) (HPC)). Also, the T/C is 105 % of control under setting [4]; 89 % of control and 93 % of control (dose: 100.0 mg/kg/injection, schedule: Q01DX009 (oral), vehicle: Klucel (hydroxypropylcellulose) (HPC)); 97 % of control (dose: 100.0 mg/kg/injection, schedule: Q04HX027 (ip), vehicle: Klucel (hydroxypropylcellulose) (HPC)); 106 % of control (dose: 100.0 mg/kg/injection, schedule: Q04HX027 (oral), vehicle: Klucel (hydroxypropylcellulose) (HPC)); 90 % of control under setting [5]; 105 % of control (dose: 200.0 mg/kg/injection, schedule: Q04HX027 (oral), vehicle: Klucel (hydroxypropylcellulose) (HPC)). Also, the T/C was 86 % of control under setting [6]; 86 % of control and 102 % of control (dose: 400.0 mg/kg/injection, schedule: Q01DX009 (oral), vehicle: Klucel (hydroxypropylcellulose) (HPC)); 101 % of control (dose: 400.0 mg/kg/injection, schedule: Q04HX027 (oral), vehicle: Klucel (hydroxypropylcellulose) (HPC)); 93 % of control (dose: 800.0 mg/kg/injection, schedule: Q01DX009 (oral), vehicle: Klucel (hydroxypropylcellulose) (HPC)); 110 % of control (dose: 800.0 mg/kg/injection, schedule: Q04HX027 (oral), vehicle: Klucel (hydroxypropylcellulose) (HPC)); 92 % of control (dose: 1600.0 mg/kg/injection, schedule: Q01DX009 (oral), vehicle: Klucel (hydroxypropylcellulose) (HPC)). The T/C reads like this: (dose: 1600.0 mg/kg/injection, schedule: Q04HX027 (oral), vehicle: Klucel (hydroxypropylcellulose) (HPC)) 103 % of control; (dose: 3200.0 mg/kg/injection, schedule: Q01DX009 (oral), vehicle: Klucel (hydroxypropylcellulose) (HPC)) 95 % of control.
For the compound `CC1(C)N=C(N)N=C(N)N1c1cccc(CCCCc2cccc(N)c2)c1`, the T/C is, setting by setting: (dose: 6.25 mg/kg/injection, schedule: Q01DX009 (ip), vehicle: Klucel (hydroxypropylcellulose) (HPC)) 103 % of control; (dose: 12.5 mg/kg/injection, schedule: Q01DX009 (ip), vehicle: Klucel (hydroxypropylcellulose) (HPC)) 108 % of control; under setting [3], 114 % of control.
In the case of `Nc1ncn(C2OC(CO)C(O)C2O)c(=O)n1` (centres undefined), the T/C (dose: 0.37 mg/kg/injection, schedule: Q01DX009 (ip), vehicle: saline) is 106 % of control; the T/C (dose: 0.75 mg/kg/injection, schedule: Q01DX009 (ip), vehicle: saline) was 111 % of control; the T/C (dose: 1.5 mg/kg/injection, schedule: Q01DX009 (ip), vehicle: saline) is 112 % of control; the T/C (dose: 6.0 mg/kg/injection, schedule: Q01DX009 (ip), vehicle: saline) was 114 % of control; the T/C under setting [7] was 105 % of control; the T/C (dose: 12.0 mg/kg/injection, schedule: Q01DX009 (ip), vehicle: saline) is 112 % of control. The T/C is, setting by setting: under setting [8], 112 % of control; under setting [9], 117 % of control and 119 % of control; under setting [10], 116 % of control and 117 % of control (2×); (dose: 200.0 mg/kg/injection, schedule: Q01DX009 (ip), vehicle: saline) 153 % of control.
Take `Nc1nc2ncc(CNc3ccc(C(=O)NC(CCC(=O)O)C(=O)O)cc3)nc2c(=O)[nH]1` (centres undefined): the T/C is 96 % of control under setting [7]; 91 % of control under setting [8]; 108 % of control under setting [9]; 96 % of control under setting [10]; 101 % of control under setting [11].
Turning to `CCCCNc1ccc2nnc(C)n2n1`, the T/C is 98 % of control and 102 % of control (dose: 50.0 mg/kg/injection, schedule: Q01DX009 (ip), vehicle: DMSO); 110 % of control and 92 % of control (dose: 100.0 mg/kg/injection, schedule: Q01DX009 (ip), vehicle: DMSO); 92 % of control (dose: 200.0 mg/kg/injection, schedule: Q01DX009 (ip), vehicle: DMSO).
Turning to `COC(=O)C(NC(=O)C(NC(=O)OCc1ccccc1)C(C)O)C(C)C` (stereo not drawn) (Cbz-Thr-Val-OMe; configuration not given here), the T/C was 94 % of control under setting [4], 93 % of control under setting [5] and 108 % of control under setting [6].
As to `CCCC(NC)C(CC)CN` (centres undefined), the T/C is 93 % of control under setting [8], 100 % of control under setting [9], 110 % of control under setting [10] and 105 % of control under setting [11].
On to `Cn1c(N)c(N=Nc2ccccc2Cl)c(=O)n(C)c1=O`, for which the T/C by setting is: under setting [12], 92 % of control; under setting [13], 101 % of control; under setting [14], 89 % of control; under setting [1], 92 % of control and 104 % of control; under setting [2], 104 % of control.
On to `O=c1[nH]cccc1O`, for which the T/C is, setting by setting: (dose: 16.0 mg/kg/injection, schedule: Q01DX009 (ip), vehicle: saline with Tween-80) 101 % of control; (dose: 32.0 mg/kg/injection, schedule: Q01DX009 (ip), vehicle: saline with Tween-80) 92 % of control; (dose: 64.0 mg/kg/injection, schedule: Q01DX009 (ip), vehicle: saline with Tween-80) 93 % of control; (dose: 128.0 mg/kg/injection, schedule: Q01DX009 (ip), vehicle: saline with Tween-80) 105 % of control; (dose: 256.0 mg/kg/injection, schedule: Q01DX009 (ip), vehicle: saline with Tween-80) 99 % of control.
Turning to `Cc1c2cc(Cl)c3ccccc3c2c[n+]2ccccc12`, the T/C (dose: 3.12 mg/kg/injection, schedule: Q01DX009 (ip), vehicle: saline with Tween-80) is 103 % of control; the T/C under setting [12] was 108 % of control; the T/C under setting [13] is 112 % of control; the T/C under setting [14] was 101 % of control; the T/C under setting [1] was 108 % of control.
